Key:
Format in all cases: biochemical
[1] = biological target: rat sucrase (partially purified alpha-glucosidase from intestinal rat powder) (Rattus norvegicus, UniProt P23739); test: Intestinal alpha-glucosidase assay, sucrose substrate (Glucose GO Kit)
Experimental: (§1) Intestinal alpha-glucosidases (rat maltase and sucrase): Intestinal alpha-glucosidases act upon 1,4-alpha-glucoside bonds, breaking down disaccharides to glucose. To perform this assay, partially purified alpha-glucosidase from intestinal rat powder was incubated for 60 minutes at 37° C. with multiple dilutions of test compounds. Maltose or Sucrose respectively was then introduced as substrate to the mixture and incubated for 30 minutes at 37° C. The reaction was stopped by a 5-minute incubation at 90° C. and the resultant glucose production is detected using Sigma's Glucose GO Kit. Percent inhibition was then plotted as a function of concentration for each test compound. The IC50 was determined using a 4-PL curve fit and serves as the measure of relative inhibition of each test compound (see Table 3).

[2] = biological target: recombinant human GAA (acid alpha-glucosidase) (Homo sapiens, UniProt P10253); test: Acid alpha-glucosidase (GAA) assay (4-methylumbelliferyl-alpha-D-pyranoside substrate, fluorescence)
Experimental: Acid alpha-glucosidase (GAA): To analyze inhibitory effects of a test compound, commercially available recombinant human GAA was incubated with multiple dilutions of test compound for 60 minutes at 37° C. 4-methylumbelliferyl-alpha-D-pyranoside was then introduced to the mixture as the substrate. 1,4-methyllumbelliferone is generated, and after an incubation for 20 minutes at 37° C., the reaction was stopped with the stop solution (0.5M glycine 0.3M NaOH pH 10). 1,4-methyllumbelliferone is detected by fluorescence (excitation at 365 nm, emission at 440 nm). Relative fluorescence compared to untreated enzymatic activity and test compound concentration is plotted as a function of percent inhibition. The IC50 is determined using a 4-PL curve fit as the measure of relative inhibitory activity of each test compound (see Table 3).

[3] = biological target: T1, recombinant alpha-glucosidase II (murine full-length glucosidase II, alpha and beta subunits, Glu 2) (Mus musculus, UniProt Q8BHN3); test: Alpha-glucosidase II assay (4-methylumbelliferyl-alpha-D-pyranoside substrate, fluorescence); conditions: Glucosidase 2; read-out: Glu2 IC50
T1 construct: made in house; host or cells: HEK-293T cells transduced with BacMam viruses (75% alpha, 25% beta); protein harvested from culture supernatant
T1 sequence (O08795 15-521): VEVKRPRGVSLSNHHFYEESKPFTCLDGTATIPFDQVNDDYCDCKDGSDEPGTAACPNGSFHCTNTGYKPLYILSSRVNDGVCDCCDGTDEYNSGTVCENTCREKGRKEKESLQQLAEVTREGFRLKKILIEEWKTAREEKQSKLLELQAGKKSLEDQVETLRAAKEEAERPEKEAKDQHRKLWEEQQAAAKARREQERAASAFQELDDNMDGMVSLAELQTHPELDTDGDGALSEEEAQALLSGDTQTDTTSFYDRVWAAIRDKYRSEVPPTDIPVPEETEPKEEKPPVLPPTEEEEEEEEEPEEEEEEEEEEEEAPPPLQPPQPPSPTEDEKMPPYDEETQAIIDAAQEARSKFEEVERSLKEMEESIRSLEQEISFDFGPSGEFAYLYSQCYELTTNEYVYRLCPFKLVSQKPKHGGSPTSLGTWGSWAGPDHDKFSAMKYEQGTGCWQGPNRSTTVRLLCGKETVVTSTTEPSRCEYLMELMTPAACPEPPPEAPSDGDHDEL
T1 sequence (Q8BHN3 33-944): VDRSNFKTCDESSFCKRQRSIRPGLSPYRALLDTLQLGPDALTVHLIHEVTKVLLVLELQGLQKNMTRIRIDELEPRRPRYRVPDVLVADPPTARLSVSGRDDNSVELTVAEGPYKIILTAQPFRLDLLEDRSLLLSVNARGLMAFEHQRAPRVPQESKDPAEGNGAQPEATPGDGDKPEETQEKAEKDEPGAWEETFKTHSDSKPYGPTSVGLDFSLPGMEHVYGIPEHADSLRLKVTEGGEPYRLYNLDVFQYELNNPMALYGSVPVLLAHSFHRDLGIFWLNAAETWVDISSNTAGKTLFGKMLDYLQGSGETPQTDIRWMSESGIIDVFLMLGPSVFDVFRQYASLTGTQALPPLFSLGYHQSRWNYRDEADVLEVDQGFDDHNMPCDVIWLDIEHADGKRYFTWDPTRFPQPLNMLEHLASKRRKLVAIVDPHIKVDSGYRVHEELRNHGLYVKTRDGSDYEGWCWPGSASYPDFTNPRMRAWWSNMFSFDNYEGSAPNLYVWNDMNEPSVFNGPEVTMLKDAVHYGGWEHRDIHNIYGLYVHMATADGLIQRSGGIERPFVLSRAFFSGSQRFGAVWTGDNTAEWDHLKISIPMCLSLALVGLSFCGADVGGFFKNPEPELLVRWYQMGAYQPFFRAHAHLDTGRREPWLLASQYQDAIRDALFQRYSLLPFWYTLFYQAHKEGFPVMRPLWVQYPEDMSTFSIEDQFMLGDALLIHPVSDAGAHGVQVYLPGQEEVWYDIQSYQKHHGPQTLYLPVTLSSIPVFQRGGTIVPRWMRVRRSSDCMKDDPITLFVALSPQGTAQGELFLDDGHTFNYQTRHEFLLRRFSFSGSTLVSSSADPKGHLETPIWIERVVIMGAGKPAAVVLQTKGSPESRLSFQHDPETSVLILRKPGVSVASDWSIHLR

[4] = biological target: rat maltase (partially purified alpha-glucosidase from intestinal rat powder); test: Intestinal alpha-glucosidase assay, maltose substrate (Glucose GO Kit)
Experimental: as §1

[5] = biological target: T2, recombinant alpha-glucosidase I (human full-length glucosidase I, Glu 1) (Homo sapiens, UniProt Q13724); test: Alpha-glucosidase I assay (Amplex Red glucose detection, synthetic trisaccharide substrate); conditions: Glucosidase 1; read-out: Glu 1 IC50
T2 construct: 6-His (C); made in house; host or cells: HEK-293T cells transduced with BacMam virus (virus raised in Sf9)
T2 sequence (Q13724 1-837): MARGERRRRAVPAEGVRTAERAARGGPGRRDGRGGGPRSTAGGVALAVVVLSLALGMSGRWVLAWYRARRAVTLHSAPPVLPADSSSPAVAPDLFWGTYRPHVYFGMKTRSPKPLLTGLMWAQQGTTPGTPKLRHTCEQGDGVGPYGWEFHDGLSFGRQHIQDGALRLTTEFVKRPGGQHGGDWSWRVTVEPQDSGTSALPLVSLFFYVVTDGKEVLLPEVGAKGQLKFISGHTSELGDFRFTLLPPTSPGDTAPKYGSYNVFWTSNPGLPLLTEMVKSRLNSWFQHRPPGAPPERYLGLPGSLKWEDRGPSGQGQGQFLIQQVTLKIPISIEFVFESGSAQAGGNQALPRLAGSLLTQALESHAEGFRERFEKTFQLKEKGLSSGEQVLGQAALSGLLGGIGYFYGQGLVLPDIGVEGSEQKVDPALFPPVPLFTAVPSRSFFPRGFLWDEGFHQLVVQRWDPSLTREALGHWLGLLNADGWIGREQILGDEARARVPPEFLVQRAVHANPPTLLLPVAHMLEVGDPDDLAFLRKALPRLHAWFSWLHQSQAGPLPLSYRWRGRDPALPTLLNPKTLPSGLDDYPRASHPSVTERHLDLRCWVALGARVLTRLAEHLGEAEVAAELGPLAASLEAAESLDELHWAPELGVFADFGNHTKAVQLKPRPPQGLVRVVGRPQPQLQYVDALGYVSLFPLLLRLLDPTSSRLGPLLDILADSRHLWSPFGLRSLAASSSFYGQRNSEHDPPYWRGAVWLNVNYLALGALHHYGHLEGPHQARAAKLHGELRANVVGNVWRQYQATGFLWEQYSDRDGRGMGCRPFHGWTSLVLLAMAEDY
From the text: Preparation of Human Full-length Glucosidase I: The amino acid sequence for human full-length glucosidase I was obtained from UniProt (Q13724). […] The entry vector was cloned into Kemp Proteins' BacMam Destination vector and transformed into chemically competent DH10Bac E. coli cells to produce recombinant glucosidase I bacmids. Bacmid isolates were obtained following two rounds of blue-white screening and they were transfected into Sf9 cells cultivated in serum-free medium (Thermo Fisher Scientific). Four days post-transfection the culture supernatants containing virus were harvested and filter sterilized. […] A multiplicity of infection (MOI, ratio of virus to cells) of 4 was selected. Soluble glucosidase I was detected by anti-His western blots in the soluble cell extract following extraction with 1% V/V NP40 for 30 minutes at 0° C. Productions and purifications of glucosidase I were carried out at scales ranging from 1-liter to 10-liters. […] In another example production at the 10-liter scale was performed in stirred-tank bioreactors at 27° C. and 80 rpm with dissolved oxygen level at 50% of oxygen in air and pH between 7.0 and 7.2. Cells were transduced at MOI of 4 and the cell pellet was harvested at 48 hours post-transduction using centrifugation.
The pellet from a 10-liter culture was lysed by resuspending the pellet into 1-liter of 50 mM NaH2PO4—H2O+300 mM NaCl+10 mM Imidazole+1 mM PMSF+1% V/V NP40 pH 8. The suspension was incubated on ice for 30 minutes and clarified at 500×g and 4° C. The supernatant was collected and clarified at 20,000×g for 30 minutes at 4° C. and the supernatant was collected and filtered through a 0.2 micron filter. […] The column was washed with 20 column volumes (CV) of 50 mM NaH2PO4-H2O+300 mM NaCl+10 mM Imidazole pH 8 and eluted using a linear gradient of 0-60% 50 mM NaH2PO4-H2O+300 mM NaCl+500 mM Imidazole pH 8 over 90 minutes. at 5 mL per minute. Fractions (25 mL) were collected and analyzed by SDS PAGE and Western Blot (reducing anti-His). Fractions containing purified glucosidase I were pooled and dialyzed into storage buffer (20 mM Tris+300 mM NaCl+50 mM L-arginine+10 mM EDTA+0.01% V/V Tween 80 pH 7.5). The final material was filter sterilized and stored at 4° C. and the working dilution confirmed by a use-test in the indicated assay conditions prior to use.
Alpha-glucosidase I Assay: The assay was performed by incubating recombinant alpha-glucosidase I enzyme with multiple dilutions of test compounds for 60 minutes at 37° C. A synthetic trisaccharide substrate analog was then introduced to the mixture for 90 minutes at 37° C. The reaction was then stopped with 1.5M Tris (pH 8). In the absence of inhibition, the terminal glucose of the substrate was hydrolyzed by the enzyme. The D-glucose product was detected using Amplex Red Glucose/Glucose Oxidase Assay Kit (Invitrogen) following the manufacturer's directions where glucose oxidase reacts with D-glucose to form D-gluconolactone and H2O2 which then reacts with the Amplex Red reagent to generate a red-fluorescent oxidation product (560 nm, excitation; 590 nm, emission). […] Percent inhibition is plotted as a function of concentration for each compound, compared to control reactions. The IC50 was determined using a 4-PL curve fit and serves as a measure of relative inhibitory activity of each test compound (see Table 3).

Sequence of rat sucrase (partially purified alpha-glucosidase from intestinal rat powder) (P23739 whole entry): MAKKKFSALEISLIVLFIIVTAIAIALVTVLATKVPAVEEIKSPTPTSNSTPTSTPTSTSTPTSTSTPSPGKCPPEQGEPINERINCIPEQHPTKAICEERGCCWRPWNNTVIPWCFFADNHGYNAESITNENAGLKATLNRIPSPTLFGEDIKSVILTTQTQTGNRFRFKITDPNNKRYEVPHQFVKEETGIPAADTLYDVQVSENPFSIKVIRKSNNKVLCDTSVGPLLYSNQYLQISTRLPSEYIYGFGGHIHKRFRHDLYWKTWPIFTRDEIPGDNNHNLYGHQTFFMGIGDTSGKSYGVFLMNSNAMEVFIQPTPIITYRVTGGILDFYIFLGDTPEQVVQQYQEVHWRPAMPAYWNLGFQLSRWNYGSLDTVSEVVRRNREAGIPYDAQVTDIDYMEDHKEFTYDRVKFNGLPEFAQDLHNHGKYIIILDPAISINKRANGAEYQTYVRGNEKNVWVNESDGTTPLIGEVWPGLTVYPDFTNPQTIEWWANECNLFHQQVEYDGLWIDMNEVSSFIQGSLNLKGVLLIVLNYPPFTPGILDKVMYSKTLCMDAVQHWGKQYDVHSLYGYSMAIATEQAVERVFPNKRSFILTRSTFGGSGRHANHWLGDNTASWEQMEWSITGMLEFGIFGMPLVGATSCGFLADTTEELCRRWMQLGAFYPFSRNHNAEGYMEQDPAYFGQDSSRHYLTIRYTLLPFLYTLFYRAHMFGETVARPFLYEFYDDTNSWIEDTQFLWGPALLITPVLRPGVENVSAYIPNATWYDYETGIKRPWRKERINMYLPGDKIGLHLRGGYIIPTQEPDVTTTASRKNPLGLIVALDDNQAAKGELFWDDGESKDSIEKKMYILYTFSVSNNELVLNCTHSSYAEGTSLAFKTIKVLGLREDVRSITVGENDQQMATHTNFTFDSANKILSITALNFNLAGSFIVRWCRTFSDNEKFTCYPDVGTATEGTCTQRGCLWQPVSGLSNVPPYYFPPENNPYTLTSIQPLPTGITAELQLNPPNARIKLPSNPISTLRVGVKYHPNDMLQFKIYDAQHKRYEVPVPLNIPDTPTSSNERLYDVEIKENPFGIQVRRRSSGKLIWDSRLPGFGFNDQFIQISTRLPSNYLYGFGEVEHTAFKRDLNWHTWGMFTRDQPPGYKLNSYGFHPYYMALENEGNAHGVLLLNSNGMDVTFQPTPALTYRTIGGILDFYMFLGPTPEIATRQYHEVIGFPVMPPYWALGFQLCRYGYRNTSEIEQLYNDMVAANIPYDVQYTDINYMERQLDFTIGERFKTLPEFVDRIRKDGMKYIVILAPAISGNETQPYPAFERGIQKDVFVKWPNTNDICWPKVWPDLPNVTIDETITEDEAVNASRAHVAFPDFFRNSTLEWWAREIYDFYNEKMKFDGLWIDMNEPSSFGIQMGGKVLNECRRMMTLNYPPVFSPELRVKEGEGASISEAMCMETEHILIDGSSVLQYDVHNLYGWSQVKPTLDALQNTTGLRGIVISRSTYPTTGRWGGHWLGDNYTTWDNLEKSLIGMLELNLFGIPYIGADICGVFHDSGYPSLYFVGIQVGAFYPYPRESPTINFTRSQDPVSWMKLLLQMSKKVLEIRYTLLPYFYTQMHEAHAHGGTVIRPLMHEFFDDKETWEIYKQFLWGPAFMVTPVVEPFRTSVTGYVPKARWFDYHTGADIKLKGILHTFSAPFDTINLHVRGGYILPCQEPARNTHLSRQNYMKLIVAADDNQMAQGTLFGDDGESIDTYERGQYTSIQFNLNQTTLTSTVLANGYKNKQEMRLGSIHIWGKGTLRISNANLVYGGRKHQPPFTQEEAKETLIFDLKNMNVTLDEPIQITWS

Compound | IC50 [1] [µM] | IC50 [2] [µM] | IC50 [3] [µM] | IC50 [4] [µM] | IC50 [5] [µM]
OC[C@@H]1[C@@H](O)[C@H](O)[C@@H](O)CN1Cc1ccc(CNc2ccc(-c3cccnn3)cc2)cc1 [Compound 1095, (2R,3R,4R,5S)-2-(hydroxymethyl)-1-{[4-({[4-(pyridazin-3-yl)phenyl]amino}methyl)phenyl]methyl}piperidine-3,4,5-triol] | 0.013 | 0.243 | 0.657 | 0.011 | 0.012
[N-]=[N+]=Nc1ccc(NCC2COC(CN3C[C@H](O)[C@@H](O)[C@H](O)[C@H]3CO)CO2)c([N+](=O)[O-])c1 (stereo partly drawn) [Compound 1280, (2R,3R,4R,5S)-1-[(5-{[(4-azido-2-nitrophenyl)amino]methyl}-1,4-dioxan-2-yl)methyl]-2-(hydroxymethyl)piperidine-3,4,5-triol] |  |  | 0.194 |  | 1.46
O=[N+]([O-])c1cc(CN2CCCO2)ccc1NCc1ccc(CN2C[C@H](O)[C@@H](O)[C@H](O)[C@H]2CO)cc1 [Compound 1098] | 0.04 | 0.175 | 0.083 | 0.013 | 0.023

Reference: US20250197372A1 (priority 2020, published 2025)
